According to patent US8912188B2, “Substituted quinoxaline carboxylic acids for the inhibition of PASK” (BioEnergenix, LLC, priority 2011, dated 2014):

Molecular target: T1, PASK (Invitrogen) (Homo sapiens, UniProt Q96RG2)
T1 construct: IC50 Kinase Domain; purchased Invitrogen
Assay: PAS Kinase FRET Assay
Type: biochemical
Conditions: PAS kinase TR-FRET assay (665 nm/615 nm), 2 hours at 25° C.; read-out: IC50 Kinase Domain
Excerpt: Biochemical Assay for hPASK Activity
The aim of the FRET assay is to determine the inhibition potential of test compounds on targeted kinase. This assay platform provides a homogenous screening method for measuring kinase activity by quantitating the amount of phospho-substrate in solution following a kinase reaction.
In the presence of kinase and ATP, the Ulight-peptide is phosphorylated and captured by an anti-phospho-substrate antibody, which brings the Eu chelate donor and Ulight acceptor dyes into close proximity.
Titration of kinase at 1 mM ATP was achieved via the following protocol. […] The contents of the plate were incubated at RT for 1 h. The reaction was stopped by adding 5 μl of stop solution to each test well followed by mixing and incubation at RT for 10 minutes. 5 μl of detection mix (detection antibody diluted in detection buffer) was added; the contents of the plate were mixed and then incubated in the dark for 1 hour at RT. […] The results were graphed to calculate the EC50.
Titration of ATP at the EC50 concentration of kinase to determine ATP Km,app. was performed using the following method. […] The contents of the plate were and incubated at RT for 1 h. The reaction was stopped by adding 5 μl of stop solution to each test well followed by mixing and incubation at RT for 10 minutes. […] (detection antibody diluted in detection buffer) was added; the contents of the plate were mixed and then incubated in the dark for 1 hour at RT. […] The results were graphed to calculate the EC50 as the ATP Km,app.
Compound screening was done via the following method. 10 mM stock solution of test compound in DMSO was prepared by dissolving test compound in DMSO at RT for 1 hour, and then sonicating at 100% output for 8 minutes. If compound is not soluble under this condition, it was diluted to 3 mM. Kinase reaction buffer was prepared containing 10 mM MgCl2, 50 mM HEPES, 1 mM EGTA, 0.01% TWEEN-20, 2 mM DTT. […] As a positive control, 2.5 μl of positive compound was added to assay wells, and 2.5 μl of DMSO to assay wells as vehicle control. Kinase solution was prepared in reaction buffer at 2× final assay concentration. Kinase solution (5 μl) was added to each well of the assay plate. The substrate and ATP solution was prepared in kinase reaction buffer at 4× final assay concentration. The kinase reaction was started by adding 2.5 μl of substrate+ATP mix solution to each well of the assay plate. The plate is mixed on a plate shaker; then covered and allowed to react for 2 hours in the dark at 25° C. without shaking. The reaction was stopped by adding 5 μl of stop solution to each test well followed by mixing and incubation at RT for 10 minutes in the dark. 5 μl of detection mix (detection antibody diluted in detection buffer) was added; the contents of the plate were mixed and then incubated in the dark for 1 hour at RT.

T1 sequence (Q96RG2 999-1251 limits assumed): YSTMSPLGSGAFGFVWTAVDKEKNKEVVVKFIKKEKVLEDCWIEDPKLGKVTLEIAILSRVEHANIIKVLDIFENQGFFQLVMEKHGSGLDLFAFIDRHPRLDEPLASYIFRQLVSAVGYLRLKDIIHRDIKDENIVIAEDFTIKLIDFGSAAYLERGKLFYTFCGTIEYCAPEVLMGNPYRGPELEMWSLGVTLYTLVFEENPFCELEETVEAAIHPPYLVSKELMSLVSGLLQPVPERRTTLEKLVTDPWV

| Compound | IC50 [µM] |
| --- | --- |
| CC(C)N(C)c1nc2cc(C(=O)O)ccc2nc1-c1ccc(NC(=O)OC(C)(C)C)nc1 [Example 10, 2-(6-(tert-Butoxycarbonylamino)pyridin-3-yl)-3-(isopropyl(methyl)amino)quinoxaline-6-carboxylic acid] | < 10 |
| CC(C)N(C)c1nc2cc(C(=O)O)ccc2nc1-c1ccc(N2CCCC2)nc1 [Example 12, 3-(Isopropyl(methyl)amino)-2-(6-(pyrrolidin-1-yl)pyridin-3-yl)quinoxaline-6-carboxylic acid] | > 10 |
| CC(C)N(C)c1nc2cc(C(=O)O)ccc2nc1-c1ccc2c(c1)OCCCO2 [Example 20, 2-(3,4-Dihydro-2H-benzo[b][1,4]dioxepin-7-yl)-3-(isopropyl(methyl)amino)quinoxaline-6-carboxylic acid] | < 10 |
| CC(C)N(C)c1nc2cc(C(=O)O)ccc2nc1-c1cc2cc(F)ccc2s1 [Example 24, 2-(5-Fluorobenzo[b]thiophen-2-yl)-3-(isopropyl(methyl)amino)quinoxaline-6-carboxylic acid] | < 10 |
| CC(C)N(C)c1nc2cc(C(=O)O)ccc2nc1-c1ccc2c(cnn2C)c1 [Example 25, 3-(Isopropyl(methyl)amino)-2-(1-methyl-1H-indazol-5-yl)quinoxaline-6-carboxylic acid] | < 10 |
| CCn1ncc2cc(-c3nc4ccc(C(=O)O)cc4nc3N(C)C(C)C)ccc21 [Example 26, 2-(1-Ethyl-1H-indazol-5-yl)-3-(isopropyl(methyl)amino)quinoxaline-6-carboxylic acid] | < 10 |
| CCN(CC)c1nc2cc(C(=O)O)ccc2nc1-c1cc2ccccc2o1 [Example 27, 2-(1-Benzofuran-2-yl)-3-(diethylamino)quinoxaline-6-carboxylic acid] | < 10 |
| CN(c1nc2cc(C(=O)O)ccc2nc1-c1ccc2[nH]ncc2c1)C1CC1 [Example 29, 3-(Cyclopropyl(methyl)amino)-2-(1H-indazol-5-yl)quinoxaline-6-carboxylic acid] | < 10 |
| CC(C)N(C)c1nc2cc(C(=O)O)ccc2nc1-c1ccc2occc2c1 [Example 30, 2-(1-Benzofuran-5-yl)-3-[methyl(propan-2-yl)amino]quinoxaline-6-carboxylic acid] | < 10 |
| CC(C)N(C)c1nc2cc(C(=O)O)ccc2nc1-c1cc2ccc(Cl)cc2o1 [Example 31, 2-(6-Chloro-1-benzofuran-2-yl)-3-[methyl(propan-2-yl)amino]quinoxaline-6-carboxylic acid] | < 10 |
| C[C@H]1CCCN1c1nc2cc(C(=O)O)ccc2nc1-c1cc2ccc(F)cc2o1 [Example 32, (S)-2-(6-Fluorobenzofuran-2-yl)-3-(2-methylpyrrolidin-1-yl)quinoxaline-6-carboxylic acid] | < 10 |
| CC(C)N(C)c1nc2cc(C(=O)O)ccc2nc1-c1cc2cc(F)c(F)cc2o1 [Example 33, 2-(5,6-Difluorobenzofuran-2-yl)-3-(isopropyl(methyl)amino)quinoxaline-6-carboxylic acid] | < 10 |
| C[C@H]1CCCN1c1nc2cc(C(=O)O)ccc2nc1-c1ccc2c(c1)OC(F)(F)O2 [Example 34, (S)-2-(2,2-Difluorobenzo[d][1,3]dioxol-5-yl)-3-(2-methylpyrrolidin-1-yl)quinoxaline-6-carboxylic acid] | < 10 |
| O=C(O)c1ccc2nc(-c3ccc4[nH]ncc4c3)c(N3CCCCC3)nc2c1 [Example 35, 2-(1H-Indazol-5-yl)-3-(piperidin-1-yl)quinoxaline-6-carboxylic acid] | < 10 |
| O=C(O)c1ccc2nc(-c3ccc4[nH]ncc4c3)c(N3CCCCCC3)nc2c1 [Example 36, 3-(Azepan-1-yl)-2-(1H-indazol-5-yl)quinoxaline-6-carboxylic acid] | < 10 |
| O=C(O)c1ccc2nc(-c3ccc4[nH]ccc4c3)c(N3CCCCCC3)nc2c1 [Example 37, 3-(Azepan-1-yl)-2-(1H-indol-5-yl)quinoxaline-6-carboxylic acid] | < 10 |
| CCN(CC)c1nc2cc(C(=O)O)ccc2nc1-c1ccc2[nH]ccc2c1 [Example 38, 3-(Diethylamino)-2-(1H-indol-5-yl)quinoxaline-6-carboxylic acid] | < 10 |
| O=C(O)c1ccc2nc(-c3cc4cc(F)ccc4o3)c(N3CCCCCC3)nc2c1 [Example 39, 3-(Azepan-1-yl)-2-(5-fluorobenzofuran-2-yl)quinoxaline-6-carboxylic acid] | < 10 |
| C[C@H]1CCCN1c1nc2cc(C(=O)O)ccc2nc1-c1ccc2[nH]ccc2c1 [Example 40, (S)-2-(1H-Indol-5-yl)-3-(2-methylpyrrolidin-1-yl)quinoxaline-6-carboxylic acid] | < 10 |
| C[C@H]1CCCN1c1nc2cc(C(=O)O)ccc2nc1-c1cc2cc(F)ccc2o1 [Example 41, (S)-2-(5-Fluorobenzofuran-2-yl)-3-(2-methylpyrrolidin-1-yl)quinoxaline-6-carboxylic acid] | < 10 |
| CC(C)N(C)c1nc2cc(C(=O)O)ccc2nc1-c1ccc2c(c1)OC(F)(F)O2 [Example 42, 2-(2,2-Difluorobenzo[d][1,3]dioxol-5-yl)-3-(isopropyl(methyl)amino)quinoxaline-6-carboxylic acid] | < 10 |
| CC(C)N(C)c1nc2cc(C(=O)O)ccc2nc1-c1ccn[nH]1 [Example 43, 3-(Isopropyl(methyl)amino)-2-(1H-pyrazol-5-yl)quinoxaline-6-carboxylic acid] | < 10 |

Now from value to compound:

| IC50 [µM] | Compound |
| --- | --- |
| < 10 | CC(C)N(C)c1nc2cc(C(=O)O)ccc2nc1-c1coc2ccccc12 [Example 1, 2-(Benzofuran-3-yl)-3-(isopropyl(methyl)amino)quinoxaline-6-carboxylic acid] |
| < 10 | CC(C)N(C)c1nc2cc(C(=O)O)ccc2nc1-c1cn[nH]c1 [Example 2, 3-(Isopropyl(methyl)amino)-2-(1H-pyrazol-4-yl)quinoxaline-6-carboxylic acid] |
| < 10 | CC(C)N(C)c1nc2cc(C(=O)O)ccc2nc1-c1ccc2cn[nH]c2c1 [Example 4, 2-(1H-Indazol-6-yl)-3-(isopropyl(methyl)amino)quinoxaline-6-carboxylic acid] |
| < 10 | CC(C)N(C)c1nc2cc(C(=O)O)ccc2nc1-c1ccc2cnn(C)c2c1 [Example 5, 3-(Isopropyl(methyl)amino)-2-(1-methyl-1H-indazol-6-yl)quinoxaline-6-carboxylic acid] |
| < 10 | COc1ccc2[nH]c(-c3nc4ccc(C(=O)O)cc4nc3N(C)C(C)C)cc2c1 [Example 6, 3-(Isopropyl(methyl)amino)-2-(5-methoxy-1H-indol-2-yl)quinoxaline-6-carboxylic acid] |
| < 10 | CC(C)N(C)c1nc2cc(C(=O)O)ccc2nc1-c1cncc(Br)c1 [Example 7, 2-(5-Bromopyridin-3-yl)-3-(isopropyl(methyl)amino)quinoxaline-6-carboxylic acid] |
| < 10 | CC(C)N(C)c1nc2cc(C(=O)O)ccc2nc1-c1ccc2[nH]ncc2c1 [Example 8, 2-(1H-Indazol-5-yl)-3-(isopropyl(methyl)amino)quinoxaline-6-carboxylic acid] |
| < 10 | CC(C)N(C)c1nc2cc(C(=O)O)ccc2nc1-c1c[nH]nc1C(F)(F)F [Example 9, 3-(Isopropyl(methyl)amino)-2-(3-(trifluoromethyl)-1H-pyrazol-4-yl)quinoxaline-6-carboxylic acid] |
| < 10 | CC(C)N(C)c1nc2cc(C(=O)O)ccc2nc1-c1ccnc(F)c1 [Example 11, 2-(2-Fluoropyridin-4-yl)-3-(isopropyl(methyl)amino)quinoxaline-6-carboxylic acid] |
| < 10 | CC(C)N(C)c1nc2cc(C(=O)O)ccc2nc1-c1ccc(F)nc1 [Example 13, 2-(6-Fluoropyridin-3-yl)-3-(isopropyl(methyl)amino)quinoxaline-6-carboxylic acid] |
| < 10 | CC(C)N(C)c1nc2cc(C(=O)O)ccc2nc1-c1ccc(N)nc1 [Example 16, 2-(6-Aminopyridin-3-yl)-3-(isopropyl(methyl)amino)quinoxaline-6-carboxylic acid] |
| < 10 | COc1ccc2oc(-c3nc4ccc(C(=O)O)cc4nc3N(C)C(C)C)cc2c1 [Example 17, 3-(Isopropyl(methyl)amino)-2-(5-methoxybenzofuran-2-yl)quinoxaline-6-carboxylic acid] |
